Paper PMC11988454, “Discovery of synthetic small molecules targeting the central regulator of Salmonella pathogenicity” (Science Advances, 2025)

Legend:
[1] = test system: SPI-4 encoded T1SS (SiiE); assay: SiiE-HiBiT cell surface retention assay; format: cell-based, S. Typhimurium
Protocol: HiBiT was inserted chromosomally into SiiE at position K5411, using the suicide plasmid pMIB8021 (pSB890-siiE::K5411HiBiT). Bacteria were grown for 5 hours under SPI-4–inducing conditions (LB supplemented with 0.3 M NaCl). OD units of 0.5 were harvested at 10,000g for 2 min at 4°C. Cell pellets were washed twice with cold PBS and then resuspended to a final concentration of 0.5 OD units. Twenty-five microliters from the bacterial suspension was transferred into a 384-well plate. The Nano-Glo HiBiT Extracellular Buffer and corresponding substrate were prepared according to the manufacturer’s instructions. Twenty-five microliters of the Nano-Glo HiBiT Extracellular buffer-substrate mix was added to each sample and then incubated at r.t. for 10 min. Luminescence was measured with a Tecan Spark microplate reader.

HilC = molecular target: T1, HilC (Salmonella typhimurium, UniProt E1WAB2); assay: EMSA, binding to hilA promoter, HilC; format: biochemical, S. Typhimurium
T1 construct: His6 followed by TEV protease cleavage site (N, cleaved yes); made in house; host or cells: E. coli C41(DE3)
T1 sequence (E1WAB2 whole entry): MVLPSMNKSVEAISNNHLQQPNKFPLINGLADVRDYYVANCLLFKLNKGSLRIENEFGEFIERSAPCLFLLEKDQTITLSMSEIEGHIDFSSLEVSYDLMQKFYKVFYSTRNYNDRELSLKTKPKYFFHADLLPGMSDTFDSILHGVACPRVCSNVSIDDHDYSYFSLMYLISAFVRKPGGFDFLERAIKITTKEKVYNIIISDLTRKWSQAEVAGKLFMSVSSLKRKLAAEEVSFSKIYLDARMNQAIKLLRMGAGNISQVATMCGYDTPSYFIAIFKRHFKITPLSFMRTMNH
Protocol: EMSAs were performed similarly to as described previously ([39]) using a 62–base pair double-stranded (dsDNA) fragment of the hilA promoter, encompassing the A1 binding site ([82]). dsDNA fragments were generated by melting the complementary primers PhilA_A1_f / PhilA_A1_r (table S10) together in TE buffer [10 mM Tris (pH 8.0) and 1 mM EDTA] at 95°C for 10 min before slowly cooling to r.t. The forward primer was modified with a 5′-Cy5 fluorescent dye for detection. The protein (600 nM) was incubated with 50 nM labeled DNA in EMSA buffer [20 mM Tris (pH 8.0), 100 mM KCl, 100 μM EDTA, and 3% glycerol]. C26 was diluted first in DMSO and subsequently 1:100 into the protein-DNA sample. Samples were incubated at 37°C for 15 min, supplemented with diluted DNA loading dye, and separated on a 1.5-mm-thick, 6% (w/v) TBE polyacrylamide gel at 6°C at a constant voltage of 100 V. Gels were imaged using a ChemiDocMP imaging system (Bio-Rad).

HilD dimer = molecular target: T2, HilD dimer (Salmonella typhimurium, UniProt P0CL08); assay: BS3 cross-linking of HilD; format: biochemical, S. Typhimurium; conditions: oleic acid 50 and 100 μM; C26 up to 200 μM
T2 construct: His6-SUMO (N, cleaved yes); made in house; host or cells: E. coli C41(DE3)
T2 sequence (P0CL08 whole entry): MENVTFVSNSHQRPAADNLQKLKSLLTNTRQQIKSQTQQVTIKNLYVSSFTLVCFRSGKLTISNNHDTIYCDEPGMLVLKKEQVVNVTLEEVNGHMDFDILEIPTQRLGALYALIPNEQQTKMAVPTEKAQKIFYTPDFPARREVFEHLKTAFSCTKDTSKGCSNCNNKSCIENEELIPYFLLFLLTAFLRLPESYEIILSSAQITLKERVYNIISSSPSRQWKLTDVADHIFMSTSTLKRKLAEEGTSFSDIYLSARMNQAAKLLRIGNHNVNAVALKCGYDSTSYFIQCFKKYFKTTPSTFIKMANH
Protocol: BS^3 cross-linking of HilD was performed as previously described ([39]). In summary, HilD (10 μM) was first incubated with C26 or oleic acid in SEC buffer for 20 min at r.t., with a final DMSO concentration of 1% (v/v). HilD was then cross-linked by incubation with 0.2 mM BS^3 (Thermo Fisher Scientific, Pierce, A39266) at r.t. for 1 hour, before the reaction was quenched by the addition of 50 mM Tris (pH 7.5). Samples were analyzed using SDS-PAGE and visualized by silver staining.

HilD mutants = assay: Alanine scan, plasmid-based whole-cell PhilA activation assay; design: species or system S. Typhimurium; conditions: C26 100 μM
Protocol: A plasmid-based assay in a ΔSPI-1 background strain was developed to facilitate the introduction of point mutations in hilD. The Rha cassette (rhaS, rhaR, and Prha) was first deleted from the pT10 backbone ([67]). The fragment PhilD-hilD-PhilA-sfGFP was then inserted upstream of the terminator rrnB. hilD was then deleted from the resulting plasmid to serve as a negative control. Site-directed mutagenesis was performed using KOD polymerase (Novagen). The cell-based fluorescence assay was performed as described above. Statistical analysis was performed by applying a first Bonferroni’s multiple comparisons test to compare treated and untreated conditions within each strain (shown in Fig. 4E) and a second same test to compare the treated mutants to the treated WT condition. The absence of significance in both tests corresponds to mutations inactivating HilD. Significance in the first but not the second test corresponds to a phenotype similar to that of the WT.

HilD = molecular target: T3, HilD (Salmonella typhimurium, UniProt E1WAC0); assay: Whole-cell HilD activity assay (PhilA-sfGFP activation); format: cell-based, S. Typhimurium; conditions: C26 100 μM, strain overexpressing hilD
T3 construct: Strain PhilA-sfGFP and the isogenic ΔhilD PhilA-sfGFP were used for this purpose; endogenous in cells; host or cells: S. Typhimurium SL1344 strain PhilA-sfGFP
T3 sequence (E1WAC0 whole entry): as the sequence (P0CL08 whole entry) above

CN(CC(=O)NCc1ccc2c(c1)OCO2)Cc1ccc(Br)s1 [C26, N-(benzo[d][1,3]dioxol-5-ylmethyl)-2-{[(5-bromothiophen-2-yl)methyl](methyl)amino}acetamide]
SiiE-HiBiT retained on the bacterial cell surface [1]: reduced in a dose-dependent manner | DNA binding activity of HilC (hilA promoter) (HilC): no effect | levels of cross-linked HilD dimer (HilD dimer): did not affect the levels of cross-linking | sensitivity of HilD I42A, I100A, N260A, K264A to C26 (HilD mutants): partial loss of sensitivity | sensitivity of HilD L45A, Y46A, F98A, E102A, Y212A to C26 (HilD mutants): full loss of sensitivity | decrease of PhilA activation (HilD; WT background): 14% | decrease of PhilA activation (HilD; ΔhilD ΔhilC ΔrtsA background): 18%
